Test results reported in US20030134859A1 (SANKYO COMPANY, LIMITED, priority 2000, published 2003).
Like-named read-outs stand apart in the source and are kept apart here.

Columns and labels:
Rat white adipocytes = experiment: Stimulation of differentiation of the adipocytes (Oil Red O); assay type: cell-based; details: 100 nM test compound, 5 days, Oil Red O ABS550, control = 100%, blank = 0%, Table 7; for activity at 0.1 µM: Rattus norvegicus, Adipocyte, 120 h, read-out: Rate of Differentiation (%)
Summary of the method: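 Oil Red O lipid staining, absorbance 550 nm after DMSO extraction, quantified differentiation of rat white adipocytes exposed 5 days to compound (final 100 nM, 0.1% DMSO) in differentiation medium. Percent differentiation normalised between cell-free blank (0%) and DMSO control (100%).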

[1] = tested on: Mouse preadipocyte strain 3T3-L1; experiment: Inhibition of differentiation as an indication of acetic acid uptake; assay type: cell-based; details: control (0.01% dimethylsulfoxide) = 100%; for activity at 0.1 µM: Mus musculus, read-out: Rate of Uptake (%) of [2-14C] acetic acid
Summary of the method: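 Differentiation is indexed by 1 hr [2-14C]acetic acid incorporation, measured by scintillation counting and given as uptake relative to 0.01% DMSO control (100%). Mouse 3T3-L1 preadipocytes, pre-grown 10 days, received 0.1 μM test substance throughout a 4-day insulin/IBMX/dexamethasone induction, followed by 2 days' maintenance culture.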

Row | Compound | activity at 0.1 µM (Rat white adipocytes) | activity at 0.1 µM ([1]; 3T3-L1, 0.1 μM test substance) | other results
1 | O=C(Nc1ccc(-c2ccc([N+](=O)[O-])cc2)cc1)c1cc([N+](=O)[O-])ccc1Cl [Example 9, N-[4-(4-Nitrophenyl)phenyl)-(2-chloro-5-nitrophenyl)carboxamide] | 116% | – | activity at 0.1 µM ([1]; 0.1 μM test substance): 59.9%
2 | CCCc1ccc(NC(=O)c2cc([N+](=O)[O-])ccc2Cl)cc1 [Example 15, N-(4-Propylphenyl)-(2-chloro-5-nitrophenyl)carboxamide] | 124% | 78.4% | –
3 | O=C(Nc1ccc(OC(F)(F)F)cc1)c1cc([N+](=O)[O-])ccc1Cl [Example 18, N-(4-Trifluoromethyloxyphenyl)-(2-chloro-5-nitrophenyl)carboxamide] | 115% | 53.8% | –
4 | O=C(Nc1cc([N+](=O)[O-])ccc1Cl)c1cc([N+](=O)[O-])ccc1Cl [Example 28, N-(2-Chloro-5-nitrophenyl)-(2-chloro-5-nitrophenyl)carboxamide] | 111% | – | activity at 0.1 µM ([1]; 0.1 μM test substance): 87.8%
5 | Cc1ccc(S(=O)(=O)Nc2ccc(NC(=O)c3cc([N+](=O)[O-])ccc3Cl)cc2)cc1 [Example 32, N-[4-(4-Methylbenzene)sulfonylaminophenyl]-(2-chloro-5-nitrophenyl)carboxamide] | – | – | Rate of Differentiation (%) (Rat white adipocytes): 114.6%; Rate of Uptake (%) of [2-14C] acetic acid ([1]; 0.1 μM test substance): 60.5%
6 | O=C(Nc1nc2ccc([N+](=O)[O-])cc2s1)c1cc([N+](=O)[O-])ccc1Cl [Example 34, N-(6-Nitrobenzothiazol-2-yl)-(2-chloro-5-nitrophenyl)carboxamide] | 140% | – | activity at 0.1 µM ([1]; 0.1 μM test substance): 60.8%
7 | O=C(Nc1nc(-c2cccs2)cs1)c1cc([N+](=O)[O-])ccc1Cl [Example 36, N-[4-(2-Thienyl)thiazol-2-yl)-(2-chloro-5-nitrophenyl)carboxamide] | 111% | 29.2% | –
8 | O=C(Nc1nc(-c2ccc(Cl)c(Cl)c2)cs1)c1cc([N+](=O)[O-])ccc1Cl [Example 43, N-[4-(3,4-Dichlorophenyl)thiazol-2-yl]-(2-chloro-5-nitrophenyl)carboxamide] | 118% | 56.7% | –
9 | O=C(Nc1nccc2ccccc12)c1cc([N+](=O)[O-])ccc1Cl [Example 59, N-(Isoquinolin-1-yl)-(2-chloro-5-nitrophenyl)carboxamide] | 121% | 36.3% | –
10 | O=C(Nc1nc(Cl)cc(Cl)n1)c1cc([N+](=O)[O-])ccc1Cl [Example 83, N-(4,6-Dichloropyrimidin-2-yl)-(2-chloro-5-nitrophenyl)carboxamide] | 114% | 75.6% | –
11 | Cc1noc(NS(=O)(=O)c2ccc(NC(=O)c3cc([N+](=O)[O-])ccc3Cl)cc2)c1C [Example 104, N-[4-[(3,4-Dimethylisoxazol-6-yl)aminosulfonyl]phenyl]-(2-chloro-5-nitrophenyl)carboxamide] | 115% | 89.8% | –
12 | O=C(Nc1ccc(N2CCCCC2)cc1)c1cc([N+](=O)[O-])ccc1Cl [Example 114, N-[4-(Piperidin-1-yl)phenyl]-(2-chloro-5-nitrophenyl)carboxamide] | 118% | 79% | –
13 | CC(=O)Nc1ccc(-c2ccc(NC(=O)c3cc([N+](=O)[O-])ccc3Cl)cc2)cc1 [Example 118, N-[4-(4-Acetylaminophenyl)phenyl]-(2-chloro-5-nitrophenyl)carboxamide] | – | 79.6% | –
14 | O=C(Nc1ccc(-c2ccc(NC(=O)c3cc([N+](=O)[O-])ccc3Cl)cc2)cc1)c1ccccc1 [Example 120, N-[4-(4-Benzoylaminophenyl)phenyl]-(2-chloro-5-nitrophenyl)carboxamide] | – | 64.6% | –
15 | Cc1ccc(C(=O)Nc2ccc(NC(=O)c3cc([N+](=O)[O-])ccc3Cl)cc2)cc1 [Example 121, N-[4-(4-Methylbenzoyl)aminophenyl]-(2-chloro-5-nitrophenyl)carboxamide] | 136% | 81% | –
16 | O=C(Nc1ccc(-c2ccc(NC(=O)c3cc([N+](=O)[O-])ccc3Cl)cc2)cc1)c1cccnc1 [Example 124, N-[4-[4-(Pyridin-3-ylcarbonylamino)phenyl]phenyl]-(2-chloro-5-nitrophenyl)carboxamide] | – | 60% | –

Row | Compound | activity at 0.1 µM (Rat white adipocytes) | activity at 0.1 µM ([1]; 3T3-L1, 0.1 μM test substance) | other results
17 | O=C(Nc1ccc(NS(=O)(=O)c2ccccc2)cc1)c1cc([N+](=O)[O-])ccc1Cl [Example 127, N-(4-Benzenesulfonylaminophenyl)-(2-chloro-5-nitrophenyl)carboxamide] | 112% | – | –
18 | O=C(Nc1cnccn1)c1cc([N+](=O)[O-])ccc1Cl [Example 140, N-(Pyrazin-2-yl)-(2-chloro-5-nitrophenyl)carboxamide] | – | 72.4% | –
19 | Cc1ccc2nc(NC(=O)c3cc([N+](=O)[O-])ccc3Cl)sc2c1 [Example 141, N-(6-Methybenzothiazol-2-yl)-(2-chloro-5-nitrophenyl)carboxamide] | – | – | Rate of Differentiation (%) (Rat white adipocytes): 133.2%; Rate of Uptake (%) of [2-14C] acetic acid ([1]; 0.1 μM test substance): 78.7%
20 | Cl.O=C(Nc1ccncc1)c1cc([N+](=O)[O-])ccc1Cl [Example 146, N-(Pyridin-4-yl)-(2-chloro-5-nitrophenyl)carboxamide Hydrochloride] | – | 60% | –
21 | Cc1ccc(C(=O)Nc2nc3ccc(NC(=O)c4cc([N+](=O)[O-])ccc4Cl)cc3s2)cc1 [Example 149, N-[2-(4-Methylbenzoylamino)benzothiazol-6-yl]-(2-chloro-5-nitrophenyl)carboxamide] | – | 76.5% | –
22 | CCc1ccc(S(=O)(=O)Nc2ccc(NC(=O)c3cc([N+](=O)[O-])ccc3Cl)cc2)cc1 [Example 150, N-[4-(4-Ethylbenzenesulfonylamino)phenyl]-(2-chloro-5-nitrophenyl)carboxamide] | 137% | 82.9% | –
23 | O=C(Nc1ccc(S(=O)(=O)N2CCCCC2)cc1)c1cc([N+](=O)[O-])ccc1Cl [Example 151, N-[4-(Piperidyisulfonyl)phenyl]-(2-chloro-5-nitrophenyl)carboxamide] | 118% | 62.3% | –
24 | O=C(Nc1ccc(S(=O)(=O)N2CCOCC2)cc1)c1cc([N+](=O)[O-])ccc1Cl [Example 153, N-[4-(Morpholin-4-ylsulfonyl)phenyl]-(2-chloro-5-nitrophenyl)carboxamide] | 110% | 70.2% | –
25 | O=C(Nc1ccc(C(=O)N2CCCCC2)cc1)c1cc([N+](=O)[O-])ccc1Cl [Example 159, N-[4-(Piperidylcarbonyl)phenyl]-(2-chloro-5-nitrophenyl)carboxamide] | 123% | – | –
26 | CC(C)(C)c1cc(NS(=O)(=O)c2cccc(NC(=O)c3cc([N+](=O)[O-])ccc3Cl)c2)cc(C(C)(C)C)c1O [Example 161, N-[3-[(3,5-di-tert-Butyl-4-hydroxyphenyl)aminosulfonyl]phenyl]-(2-chloro-5-nitrophenyl)carboxamide] | 113% | – | –
27 | CC(C)(C)c1cc(NS(=O)(=O)c2ccc(NC(=O)c3cc([N+](=O)[O-])ccc3Cl)cc2)cc(C(C)(C)C)c1O [Example 175, N-[4-[(3,5-di-tert-Butyl-4-hydroxyphenyl)aminosulfonyl]phenyl]-(2-chloro-5-nitrophenyl)carboxamide] | 114% | – | –
28 | CCCN(CCC)c1ccc(NC(=O)c2cc([N+](=O)[O-])ccc2Cl)cc1 [Example 182, N-[4-(N,N-Dipropylamino)phenyl]-(2-chloro-5-nitrophenyl)carboxamide] | 122% | – | –
29 | O=C(Nc1nc(-c2ccc([N+](=O)[O-])cc2)cs1)c1cc([N+](=O)[O-])ccc1Cl [Example 246, N-[4-(4-Nitrophenyl)thiazol-2-yl]-(2-chloro-5-nitrophenyl)carboxamide] | 120% | – | –
30 | N-[3-(Pyrrolidinylsulfonyl)phenyl]-(2-chloro-5-nitrophenyl)carboxamide [Example 154] | – | – | Rate of Differentiation (%) (Rat white adipocytes): 123.8%; Rate of Uptake (%) of [2-14C] acetic acid ([1]; 0.1 μM test substance): 67.4%
31 | N-[4-(4-Methylbenzoylamino)phenyl]phenyl]-(2-chloro-5-nitrophenyl)carboxamide [Example 122] | – | – | Rate of Uptake (%) of [2-14C] acetic acid ([1]; 0.1 μM test substance): 75.4%
